Test results from BindingDB's records for doi:10.7270/Q2CN728N (Nmmlsc, 2008).

biological target: T1, Bcl-2-related protein A1 (Homo sapiens, UniProt Q16548); test: inhibitors of Bim binding to Bfl-1, dose response, biochemical, multiplexed, bead-based flow cytometry (AID 1320); conditions: inactive by the depositor's call; pH 7.4; 4 °C
T1 sequence (Q16548 whole entry): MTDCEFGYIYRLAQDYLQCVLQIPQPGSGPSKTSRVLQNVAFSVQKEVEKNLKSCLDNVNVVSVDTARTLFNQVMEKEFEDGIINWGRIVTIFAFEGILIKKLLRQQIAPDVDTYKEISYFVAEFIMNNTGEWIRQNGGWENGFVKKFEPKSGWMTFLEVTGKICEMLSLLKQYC

Structure (SMILES) | EC50 [µM]
CN1CCN(C2=C(Cl)C(=O)C(c3cnc(N4CCCCC4)s3)=C(Cl)C2=O)CC1 | 0.01
Cc1ccc(-c2ccc(/C=C/C(=O)c3ccccc3)o2)cc1 | 7.03
CCN(CC)c1ccc(-c2nn3c(-c4ccccc4OC)nnc3s2)cc1 | 40.8
CCN(CC)c1ccc(-c2nn3c(-c4n[nH]c5c4CCC5)nnc3s2)cc1 | 28.6
CN(C)c1ncc(C2=C(Cl)C(=O)C(N3CCCC3)=C(Cl)C2=O)s1 | 0.04
O=C(/C=C/c1ccc(-c2ccccc2[N+](=O)[O-])o1)c1ccccc1 | 2.61
c1ccc(C2=Nc3cccc4cccc(c34)N2)cc1 | 26.2
CCN(CC)c1ccc(NC(=O)c2ccccc2Br)cc1S(=O)(=O)Nc1ccccc1OC | 5.4
Cc1ccc(/C=C2/NC(=O)N(Cc3ccc(Br)cc3)C2=O)o1 | 5.22
CCOC(=O)c1c(NC(C)=O)sc2c(O)c(Br)cc(Br)c12 | 17.8
COc1ccc(N2C(=O)C(=Cc3cccs3)NC2=S)cc1 | 3.86
O=C1CSc2ccc(C(=O)Nc3cccc(S(=O)(=O)Nc4ccc(Br)cc4)c3)cc2N1 | 5.81
CCOc1ccc(-n2cc(-c3ccc(OC)c(OC)c3)[nH]c2=S)cc1 | 0.68
CCOC(=O)c1ccc(/N=c2/ssnc2Cl)cc1 | 37.5
Cc1ccc(-c2nc3c(c(=O)[nH]c(=O)n3Cc3ccccc3)n2Cc2ccccc2)o1 | 8.43
CC1N(C)c2cccc3cccc(c23)N1C [1,2,3-trimethyl-2,3-dihydro-1H-perimidine] | 2.46
Cc1c(/N=C2\C=CC(=O)c3ccccc32)c(=O)n(-c2ccccc2)n1C [1,5-dimethyl-4-[(4-oxo-1-naphthalenylidene)amino]-2-phenyl-3-pyrazolone] | 53.5
Cc1ccc(O)c(NC2=C(Cl)C(=O)N(Cc3ccccc3)C2=O)c1 [1-benzyl-3-chloro-4-(2-hydroxy-5-methylanilino)pyrrole-2,5-dione] | 13.8
Cc1ccc(C(=O)/C=C/c2ccc(-c3ccc(C)cc3)o2)cc1 [1-p-Tolyl-3-(5-p-tolyl-furan-2-yl)-propenone] | 3.23

same assay, conditions: pH 7.4; 4 °C

Structure (SMILES) | EC50 [µM]
CN1CCc2cccc3c2[C@@H]1Cc1ccc(O)c(O)c1-3 | 15.1
O=C(Nc1ccc2nc(-c3ccco3)c(-c3ccco3)nc2c1)N1CCCCCC1 | 0.92
CCN1C(=O)/C(=C/C=C2\C=CN(CC)c3ccccc32)SC1=S | 3.6
CCC(/C=C1\Sc2ccc(OC)cc2N1CCO)=C\c1sc2ccc(OC)cc2[n+]1CCO | 20.3
N#Cc1cc(-c2ccccc2)nn1-c1ccccc1 | 2.02
Cc1ccc(-c2cc(-c3ccc(F)cc3)c(C#N)c(N)n2)o1 | 5.2
Cc1c(N=C2C(=O)N(c3ccccc3Cl)C(=O)C2Cl)c(=O)n(-c2ccccc2)n1C (stereo not given) | 6.04
CCN=c1scc(C)n1N=Cc1ccc(O)c(O)c1O | 19.6
Cc1cccc(N2C(=S)C(C#N)C(=O)NC2c2cccs2)c1 (stereo not given) | 18.3
O=C1C(Cl)=C(N2CCN(c3ccccc3[N+](=O)[O-])CC2)C(=O)c2ccccc21 | 0.36
c1ccc(-c2nc(N3CCOCC3)[s+]n2-c2ccccc2)cc1 | 0.05
Cc1ccc(C)c(/C=C/C(=O)c2ccccc(=O)c2O)c1 | 8.74
O=C(NC1=C(Nc2ccc(Cl)cc2)C(=O)c2ccccc2C1=O)c1ccccc1 | 2.91
CCN(CC)S(=O)(=O)c1cccc(C(=O)NN=Cc2ccc(O)c(O)c2O)c1 | 6.41
O=C(Nc1ccc2nc(-c3ccco3)c(-c3ccco3)nc2c1)N1CCN(c2ccccn2)CC1 | 5.94
O=C(c1ccccc1)c1ccc2nc(-c3ccco3)c(-c3ccco3)nc2c1 | 9.94
CCOc1ccccc1CNc1ccc(O)cc1 | 1.13
CCN1/C(=C/c2ccc3cc(C)ccc3[n+]2CC)Sc2cc(C)c(C)cc21 | 16.9
COc1ccc(-n2cc(-c3ccc(OC)c(OC)c3)[nH]c2=S)cc1 | 1.58
O=c1[nH]c(O)c(Cc2ccc(-c3cc(Cl)ccc3[N+](=O)[O-])o2)c(=O)[nH]1 | 1.24
O=C(NCCCO)Nc1ccc2nc(-c3ccco3)c(-c3ccco3)nc2c1 [1-[2,3-bis(2-furanyl)-6-quinoxalinyl]-3-(3-hydroxypropyl)urea] | 1.25
